Molecular target: human GluN1/GluN2B NMDA receptors (Homo sapiens (Human), UniProt Q05586+Q13224)
Assay: Cell-based calcium flux (FLIPR) assay on cloned human NR1/NR2B ion channels expressed in mammalian cells
Conditions: standard assay, glutamate ~EC40, 10 μM glycine
Procedure: Effects of Test Articles on Cloned Human NR1/NR2B Ion Channels Expressed in Mammalian Cells
NMDA receptors are ion channels that are highly permeable to Ca^2+ ions, rendering it possible to monitor NMDA receptor function using cell-based calcium flux assay. In this assay, co-agonists glutamate and glycine are added to cells heterologously expressing human GluN1/GluN2B NMDA receptors to initiate cellular Ca^2+ influx. The time course of the changes in intracellular calcium is measured using a fluorescent dye and a FLIPR (Fluorometric Imaging Plate Reader) device.
Twenty four hours before measurements, the expression of the NMDA receptors in the stable cell line is induced with Tet-On inducible system in the presence of a non-selective NMDA receptor blocker. On the day of the experiment, cell culture media is carefully washed and the cells are loaded with Calcium 5 Dye Kit (Molecular Devices) in dye loading buffer containing 137 mM NaCl, 4 mM KCl, 2 mM CaCl2), 0.5 mM MgCl2(standard assay) or 1.5 mM MgCl2 (HTS assay), 10 mM HEPES and 5 mM D-glucose; pH 7.4. After 1 h incubation at the room temperature, the dye is washed away with the assay buffer (137 mM NaCl (standard assay) or 150 mM (HTS assay), 4 mM KCl (standard assay) or 3 mM (HTS assay), 2 mM CaCl2), 0.01 mM EDTA, 10 mM HEPES and 5 mM D-glucose; pH 7.4) In the FLIPR TETRA reader, various concentrations of the test compounds are added to the cells for 5 min while fluorescence is monitored to detect potential agonist activity. Next, co-agonists, glutamate and glycine are added for another 5 minutes. The concentration of glutamate corresponding to ˜EC40 (standard assay) or EC40 (HTS assay) is used to maximize the assay's signal window and ability to detect NMDA receptor antagonists and negative allosteric modulators. A saturating concentration (10 μM) of glycine is also present in the assay. A non-selective NMDA receptor antagonist, (+)MK-801 is used as a positive control for antagonist activity. The fluorescent signal in the presence of test compounds is quantified and normalized to the signal defined by the appropriate control wells.

Chain of human GluN1/GluN2B NMDA receptors (Q13224 27-1484, other chains not shown): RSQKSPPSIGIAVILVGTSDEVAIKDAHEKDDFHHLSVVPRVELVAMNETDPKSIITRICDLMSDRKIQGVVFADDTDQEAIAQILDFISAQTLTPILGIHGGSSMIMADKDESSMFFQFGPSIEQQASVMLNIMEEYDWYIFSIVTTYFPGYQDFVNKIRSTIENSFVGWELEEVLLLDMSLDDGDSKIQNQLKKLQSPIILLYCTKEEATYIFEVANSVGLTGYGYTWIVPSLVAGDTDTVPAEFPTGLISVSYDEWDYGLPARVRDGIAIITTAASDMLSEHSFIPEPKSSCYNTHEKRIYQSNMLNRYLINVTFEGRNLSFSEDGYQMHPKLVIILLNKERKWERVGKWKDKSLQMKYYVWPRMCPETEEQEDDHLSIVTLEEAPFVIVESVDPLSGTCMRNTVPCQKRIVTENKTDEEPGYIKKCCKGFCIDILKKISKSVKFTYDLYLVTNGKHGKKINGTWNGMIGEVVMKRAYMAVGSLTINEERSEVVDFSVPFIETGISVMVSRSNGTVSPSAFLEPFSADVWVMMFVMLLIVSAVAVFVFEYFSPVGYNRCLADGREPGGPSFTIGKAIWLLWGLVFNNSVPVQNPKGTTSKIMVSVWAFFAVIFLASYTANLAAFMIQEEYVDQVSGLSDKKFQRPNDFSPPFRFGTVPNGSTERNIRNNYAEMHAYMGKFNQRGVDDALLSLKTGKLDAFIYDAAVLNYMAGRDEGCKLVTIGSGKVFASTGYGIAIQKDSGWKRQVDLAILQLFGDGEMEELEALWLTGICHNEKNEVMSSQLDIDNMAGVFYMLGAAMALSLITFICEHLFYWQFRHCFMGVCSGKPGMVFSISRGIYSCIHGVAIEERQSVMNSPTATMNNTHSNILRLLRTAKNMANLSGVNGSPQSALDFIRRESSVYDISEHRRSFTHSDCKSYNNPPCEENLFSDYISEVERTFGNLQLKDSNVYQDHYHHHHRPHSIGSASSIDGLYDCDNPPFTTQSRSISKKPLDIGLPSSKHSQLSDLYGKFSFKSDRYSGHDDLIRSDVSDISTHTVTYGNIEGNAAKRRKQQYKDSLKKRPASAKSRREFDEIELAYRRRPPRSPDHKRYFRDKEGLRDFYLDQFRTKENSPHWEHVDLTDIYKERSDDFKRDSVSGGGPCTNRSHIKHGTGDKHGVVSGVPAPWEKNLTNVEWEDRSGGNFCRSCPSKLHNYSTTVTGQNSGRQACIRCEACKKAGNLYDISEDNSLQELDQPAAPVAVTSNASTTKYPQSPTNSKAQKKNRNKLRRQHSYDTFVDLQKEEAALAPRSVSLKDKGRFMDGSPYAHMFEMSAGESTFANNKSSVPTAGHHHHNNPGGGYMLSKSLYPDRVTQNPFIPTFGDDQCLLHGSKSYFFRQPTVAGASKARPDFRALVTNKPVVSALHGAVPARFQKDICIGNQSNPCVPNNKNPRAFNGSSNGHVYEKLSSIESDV

Compound | IC50 [µM]
Cc1c(F)cc(-c2cnc3cnn(CC(=O)N(C)C)c3n2)cc1F [Example 20, 2-[6-(3,5-Difluoro-4-methyl-phenyl)pyrazolo[3,4-b]pyrazin-1-yl]-N,N-dimethyl-acetamide] | 0.907
CN(C)C(=O)Cn1ncc2ncc(-c3cc(F)c(F)c(F)c3)nc21 [Example 22, N,N-Dimethyl-2-[6-(3,4,5-trifluorophenyl)pyrazolo[3,4-b]pyrazin-1-yl]acetamide] | 0.489
CC(F)(F)c1cc(-c2cnc3cnn(CC(=O)N4CCC4)c3n2)ccc1F [Example 27, 1-(Azetidin-1-yl)-2-[6-[3-(1,1-difluoroethyl)-4-fluoro-phenyl]pyrazolo[3,4-b]pyrazin-1-yl]ethanone] | 0.126
Cc1nnc(Cn2ncc3ncc(-c4ccc(F)c(C(F)F)c4)nc32)o1 [Example 40, 2-[[6-[3-(Difluoromethyl)-4-fluoro-phenyl]pyrazolo[3,4-b]pyrazin-1-yl]methyl]-5-methyl-1,3,4-oxadiazole] | 0.158
N#Cc1cncc(Cn2ncc3ncc(-c4ccc(F)c(C(F)F)c4)nc32)c1 [Example 45, 5-[[6-[3-(Difluoromethyl)-4-fluoro-phenyl]pyrazolo[3,4-b]pyrazin-1-yl]methyl]pyridine-3-carbonitrile] | 0.285
O=C1NCC(Cn2ncc3ncc(-c4ccc(F)c(OC(F)F)c4)nc32)O1 (centres unmarked) [Example 51, 5-((6-(3-(Difluoromethoxy)-4-fluorophenyl)-1H-pyrazolo[3,4-b]pyrazin-1-yl)methyl)oxazolidin-2-one] | > 3
CN(C)C(=O)Cn1ncc2ncc(-c3ccc(C(C)(F)F)cc3)nc21 [Example 53, 2-(6-(4-(1,1-Difluoroethyl)phenyl)-1H-pyrazolo[3,4-b]pyrazin-1-yl)-N,N-dimethylacetamide] | > 3

Stronger by IC50, values ahead:

IC50 [µM] | Compound
0.122 | CC1CN(C(=O)Cn2ncc3ncc(-c4ccc(F)c(C(F)F)c4)nc32)C1 [Example 30, 2-[6-[3-(Difluoromethyl)-4-fluoro-phenyl]pyrazolo[3,4-b]pyrazin-1-yl]-1-(3-methylazetidin-1-yl)ethanone]
0.072 | CN(C)C(=O)Cn1ncc2ncc(-c3ccc(F)c(OC(F)F)c3)nc21 [Example 16, 2-[6-[3-(Difluoromethoxy)-4-fluoro-phenyl]pyrazolo[3,4-b]pyrazin-1-yl]-N,N-dimethyl-acetamide]
0.064 | CN(C)C(=O)Cn1ncc2ncc(-c3ccc(Cl)c(OC(F)F)c3)nc21 [Example 18, 2-[6-[4-Chloro-3-(difluoromethoxy)phenyl]pyrazolo[3,4-b]pyrazin-1-yl]-N,N-dimethyl-acetamide]
0.059 | CN(C)C(=O)Cn1nc(F)c2ncc(-c3ccc(F)c(C(F)F)c3)nc21 [Example 11, 2-[6-[3-(Difluoromethyl)-4-fluoro-phenyl]-3-fluoro-pyrazolo[3,4-b]pyrazin-1-yl]-N,N-dimethyl-acetamide]
